Data published in US20230310406A1 (priority 2020, published 2023).
Read-outs that look alike come from different tables or passages of the source.

Experiments:
Sigma opiate sites = assay: in vitro affinity at sigma opiate sites; type: binding
[1] = target: T1, adrenergic receptor Alpha 1B (Homo sapiens, UniProt P35368); assay: in vitro antagonistic activity at adrenergic Alpha 1B; type: biochemical
T1 sequence (P35368 1-520): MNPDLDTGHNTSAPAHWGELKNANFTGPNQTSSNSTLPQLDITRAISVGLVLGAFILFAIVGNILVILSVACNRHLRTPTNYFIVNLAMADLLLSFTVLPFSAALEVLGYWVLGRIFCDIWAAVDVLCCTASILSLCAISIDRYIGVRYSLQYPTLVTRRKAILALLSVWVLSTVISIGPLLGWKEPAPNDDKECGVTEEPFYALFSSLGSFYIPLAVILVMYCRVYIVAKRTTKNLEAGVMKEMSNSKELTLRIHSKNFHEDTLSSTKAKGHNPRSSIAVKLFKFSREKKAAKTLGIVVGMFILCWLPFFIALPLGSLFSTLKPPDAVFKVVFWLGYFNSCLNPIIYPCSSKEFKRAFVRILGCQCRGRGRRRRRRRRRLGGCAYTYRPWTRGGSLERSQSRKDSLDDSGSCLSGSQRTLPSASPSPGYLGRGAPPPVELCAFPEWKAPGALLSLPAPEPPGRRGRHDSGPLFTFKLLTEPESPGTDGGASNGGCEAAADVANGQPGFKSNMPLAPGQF

[2] = target: T2, cholinergic muscarinic receptor 1 (Homo sapiens, UniProt P11229); assay: in vitro antagonistic activity at muscarinic receptor 1; type: biochemical
T2 sequence (P11229 1-460): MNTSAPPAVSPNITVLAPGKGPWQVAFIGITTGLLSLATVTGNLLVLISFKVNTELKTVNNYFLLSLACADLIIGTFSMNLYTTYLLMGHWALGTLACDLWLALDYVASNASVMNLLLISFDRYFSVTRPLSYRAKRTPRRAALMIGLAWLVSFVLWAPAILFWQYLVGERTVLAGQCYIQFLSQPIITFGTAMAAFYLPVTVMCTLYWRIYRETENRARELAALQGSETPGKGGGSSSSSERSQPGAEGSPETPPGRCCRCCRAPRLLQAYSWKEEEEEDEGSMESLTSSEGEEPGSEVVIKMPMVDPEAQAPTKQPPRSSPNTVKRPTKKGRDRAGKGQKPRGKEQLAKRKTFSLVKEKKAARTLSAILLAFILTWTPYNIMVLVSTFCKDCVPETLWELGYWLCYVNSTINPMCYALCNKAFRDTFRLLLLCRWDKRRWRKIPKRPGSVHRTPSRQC

[3] = target: T3, adrenergic receptor Alpha 2B (Homo sapiens, UniProt P18089); assay: in vitro antagonistic activity at adrenergic Alpha 2B; type: biochemical
T3 sequence (P18089 1-450): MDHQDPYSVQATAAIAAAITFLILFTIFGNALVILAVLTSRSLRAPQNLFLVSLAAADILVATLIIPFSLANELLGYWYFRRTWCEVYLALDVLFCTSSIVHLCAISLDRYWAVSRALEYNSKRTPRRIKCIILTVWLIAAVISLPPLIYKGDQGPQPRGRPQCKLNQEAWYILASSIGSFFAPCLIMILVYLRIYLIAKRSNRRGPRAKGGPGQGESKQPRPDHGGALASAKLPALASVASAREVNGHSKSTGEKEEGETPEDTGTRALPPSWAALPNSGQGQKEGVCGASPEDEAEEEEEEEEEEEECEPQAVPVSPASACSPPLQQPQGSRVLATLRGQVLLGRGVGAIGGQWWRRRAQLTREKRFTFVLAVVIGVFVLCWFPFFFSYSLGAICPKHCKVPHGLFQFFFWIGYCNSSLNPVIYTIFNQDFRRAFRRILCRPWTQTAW

serotonin receptor 1B = serotonin receptor 1B (Homo sapiens, UniProt P28222); assay: in vitro antagonistic activity at serotonin receptor 1B; type: biochemical
serotonin receptor 1A = target: T4, serotonin receptor 1A (Homo sapiens, UniProt P08908); assay: in vitro antagonistic activity at serotonin receptor 1A; type: biochemical
T4 sequence (P08908 1-422): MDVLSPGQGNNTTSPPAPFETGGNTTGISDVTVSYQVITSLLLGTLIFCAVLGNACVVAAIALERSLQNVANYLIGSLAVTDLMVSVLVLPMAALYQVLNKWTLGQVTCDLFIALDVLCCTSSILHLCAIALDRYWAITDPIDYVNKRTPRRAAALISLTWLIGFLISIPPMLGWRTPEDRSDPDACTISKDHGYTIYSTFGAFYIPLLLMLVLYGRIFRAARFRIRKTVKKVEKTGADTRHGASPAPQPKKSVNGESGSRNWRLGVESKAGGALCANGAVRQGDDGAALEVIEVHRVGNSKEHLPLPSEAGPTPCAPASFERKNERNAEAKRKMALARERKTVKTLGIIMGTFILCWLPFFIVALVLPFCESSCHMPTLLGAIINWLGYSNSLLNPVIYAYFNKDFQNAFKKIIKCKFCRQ

dopamine D4 receptor = target: T5, dopamine D4 receptor (Homo sapiens, UniProt P21917); assay: in vitro antagonistic activity at dopamine D4; type: biochemical
T5 sequence (P21917 1-419): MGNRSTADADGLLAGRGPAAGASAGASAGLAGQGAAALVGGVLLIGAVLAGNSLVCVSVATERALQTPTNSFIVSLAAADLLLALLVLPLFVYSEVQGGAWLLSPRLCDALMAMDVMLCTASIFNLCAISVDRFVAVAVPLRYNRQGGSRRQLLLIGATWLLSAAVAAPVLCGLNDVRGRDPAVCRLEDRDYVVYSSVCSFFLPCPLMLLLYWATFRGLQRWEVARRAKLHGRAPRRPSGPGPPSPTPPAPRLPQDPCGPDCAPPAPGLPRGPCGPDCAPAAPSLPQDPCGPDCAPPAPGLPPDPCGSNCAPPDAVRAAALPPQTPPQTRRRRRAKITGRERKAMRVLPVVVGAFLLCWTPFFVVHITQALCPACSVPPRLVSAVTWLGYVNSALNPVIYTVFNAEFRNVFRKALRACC

[4] = target: T6, cholinergic muscarinic receptor 4 (Homo sapiens, UniProt P08173); assay: in vitro antagonistic activity at muscarinic receptor 4; type: biochemical
T6 sequence (P08173 1-479): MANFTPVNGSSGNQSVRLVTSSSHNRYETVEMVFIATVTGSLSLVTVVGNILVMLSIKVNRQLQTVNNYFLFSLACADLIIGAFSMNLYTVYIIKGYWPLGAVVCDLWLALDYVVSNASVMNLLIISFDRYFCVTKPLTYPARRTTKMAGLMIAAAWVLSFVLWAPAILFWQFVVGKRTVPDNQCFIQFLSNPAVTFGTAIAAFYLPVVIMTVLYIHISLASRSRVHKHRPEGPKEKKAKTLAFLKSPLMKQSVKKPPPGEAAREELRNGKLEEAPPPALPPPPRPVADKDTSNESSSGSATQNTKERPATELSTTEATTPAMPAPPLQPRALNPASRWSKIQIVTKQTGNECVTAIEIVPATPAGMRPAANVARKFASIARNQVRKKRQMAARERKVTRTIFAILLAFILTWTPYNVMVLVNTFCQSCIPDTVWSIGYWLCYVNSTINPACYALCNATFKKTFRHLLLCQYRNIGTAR

Kappa (KOP) receptor = Kappa (KOP) receptor (Homo sapiens, UniProt P41145); type: biochemical
[5] = target: T7, adrenergic receptor Alpha 2C (Homo sapiens, UniProt P18825); assay: in vitro antagonistic activity at adrenergic Alpha 2C; type: biochemical
T7 sequence (P18825 1-462): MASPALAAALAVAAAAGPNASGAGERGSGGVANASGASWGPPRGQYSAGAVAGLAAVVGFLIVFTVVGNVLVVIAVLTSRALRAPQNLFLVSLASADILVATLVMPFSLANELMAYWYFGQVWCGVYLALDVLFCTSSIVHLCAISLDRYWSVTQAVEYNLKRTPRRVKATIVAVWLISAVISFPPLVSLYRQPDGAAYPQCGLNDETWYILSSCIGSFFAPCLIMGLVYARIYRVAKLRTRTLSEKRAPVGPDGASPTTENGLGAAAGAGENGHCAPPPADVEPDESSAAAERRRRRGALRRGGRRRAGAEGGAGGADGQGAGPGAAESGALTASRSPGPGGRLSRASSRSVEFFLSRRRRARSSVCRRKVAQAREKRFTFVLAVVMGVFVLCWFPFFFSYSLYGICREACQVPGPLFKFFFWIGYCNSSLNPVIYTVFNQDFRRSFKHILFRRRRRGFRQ

histamine H1 receptor = histamine H1 receptor (Homo sapiens, UniProt P35367); assay: in vitro antagonistic activity at histamine H1; type: biochemical
[6] = target: cholinergic muscarinic receptor 3 (Homo sapiens, UniProt P20309); assay: in vitro antagonistic activity at muscarinic receptor 3; type: biochemical
ORL1 (NOP) receptor = ORL1 (NOP) receptor (Homo sapiens, UniProt P41146); assay: in vitro pharmacology at ORL1 receptor; type: biochemical
Mu (MOP) receptor = Mu (MOP) receptor (Homo sapiens, UniProt P35372); type: biochemical
[7] = target: T8, cholinergic muscarinic receptor 5 (Homo sapiens, UniProt P08912); assay: in vitro antagonistic activity at muscarinic receptor 5; type: biochemical
T8 sequence (P08912 1-532): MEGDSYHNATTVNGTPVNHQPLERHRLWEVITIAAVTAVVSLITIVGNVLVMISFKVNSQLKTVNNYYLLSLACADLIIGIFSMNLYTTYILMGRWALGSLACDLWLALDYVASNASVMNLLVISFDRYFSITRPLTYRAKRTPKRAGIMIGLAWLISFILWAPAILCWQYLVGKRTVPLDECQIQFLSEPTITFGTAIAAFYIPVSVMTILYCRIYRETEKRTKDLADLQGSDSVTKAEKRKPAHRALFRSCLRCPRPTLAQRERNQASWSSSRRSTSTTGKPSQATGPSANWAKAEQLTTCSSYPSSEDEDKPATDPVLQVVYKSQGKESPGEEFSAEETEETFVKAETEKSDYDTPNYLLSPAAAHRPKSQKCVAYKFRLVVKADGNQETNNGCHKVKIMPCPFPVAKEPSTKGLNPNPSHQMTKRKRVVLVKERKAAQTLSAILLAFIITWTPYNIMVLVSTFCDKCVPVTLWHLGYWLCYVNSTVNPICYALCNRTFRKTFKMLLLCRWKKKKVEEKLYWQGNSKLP

Sequence of Kappa (KOP) receptor (P41145 whole entry): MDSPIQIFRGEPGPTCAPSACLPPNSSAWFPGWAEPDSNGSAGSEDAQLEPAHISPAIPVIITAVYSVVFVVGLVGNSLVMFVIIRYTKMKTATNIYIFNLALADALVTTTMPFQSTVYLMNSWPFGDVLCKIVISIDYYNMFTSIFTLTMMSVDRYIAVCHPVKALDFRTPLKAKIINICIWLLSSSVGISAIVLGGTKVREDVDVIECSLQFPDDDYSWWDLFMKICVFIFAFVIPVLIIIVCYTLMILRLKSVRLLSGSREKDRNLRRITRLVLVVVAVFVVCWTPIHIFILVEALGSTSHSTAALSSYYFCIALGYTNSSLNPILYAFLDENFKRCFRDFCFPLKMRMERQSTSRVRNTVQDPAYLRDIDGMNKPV
Sequence of ORL1 (NOP) receptor (P41146 whole entry): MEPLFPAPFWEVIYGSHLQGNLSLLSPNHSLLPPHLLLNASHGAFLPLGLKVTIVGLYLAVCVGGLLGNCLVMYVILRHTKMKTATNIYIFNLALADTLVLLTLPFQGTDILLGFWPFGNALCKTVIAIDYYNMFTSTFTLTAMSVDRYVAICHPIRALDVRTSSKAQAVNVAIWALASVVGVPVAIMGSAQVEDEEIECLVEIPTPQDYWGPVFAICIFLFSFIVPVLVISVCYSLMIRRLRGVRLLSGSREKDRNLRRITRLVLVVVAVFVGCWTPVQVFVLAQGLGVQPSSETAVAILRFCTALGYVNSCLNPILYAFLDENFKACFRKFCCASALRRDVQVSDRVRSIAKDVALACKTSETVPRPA
Sequence of cholinergic muscarinic receptor 3 (P20309 whole entry): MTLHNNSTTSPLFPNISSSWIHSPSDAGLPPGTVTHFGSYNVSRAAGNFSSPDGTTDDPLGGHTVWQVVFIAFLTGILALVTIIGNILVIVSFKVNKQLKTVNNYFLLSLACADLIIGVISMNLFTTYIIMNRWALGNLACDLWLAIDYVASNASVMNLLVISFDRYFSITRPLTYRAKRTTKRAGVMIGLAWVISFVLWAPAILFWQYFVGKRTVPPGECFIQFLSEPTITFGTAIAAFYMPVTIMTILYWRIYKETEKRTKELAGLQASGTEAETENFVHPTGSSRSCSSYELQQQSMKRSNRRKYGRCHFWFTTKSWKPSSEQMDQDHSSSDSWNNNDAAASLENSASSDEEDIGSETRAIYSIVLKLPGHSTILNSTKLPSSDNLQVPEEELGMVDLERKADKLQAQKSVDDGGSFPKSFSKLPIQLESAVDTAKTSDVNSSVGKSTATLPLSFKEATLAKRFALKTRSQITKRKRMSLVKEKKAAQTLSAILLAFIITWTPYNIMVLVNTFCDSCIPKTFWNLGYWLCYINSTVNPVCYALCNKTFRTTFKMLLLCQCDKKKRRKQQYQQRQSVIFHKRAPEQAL
Sequence of serotonin receptor 1B (P28222 whole entry): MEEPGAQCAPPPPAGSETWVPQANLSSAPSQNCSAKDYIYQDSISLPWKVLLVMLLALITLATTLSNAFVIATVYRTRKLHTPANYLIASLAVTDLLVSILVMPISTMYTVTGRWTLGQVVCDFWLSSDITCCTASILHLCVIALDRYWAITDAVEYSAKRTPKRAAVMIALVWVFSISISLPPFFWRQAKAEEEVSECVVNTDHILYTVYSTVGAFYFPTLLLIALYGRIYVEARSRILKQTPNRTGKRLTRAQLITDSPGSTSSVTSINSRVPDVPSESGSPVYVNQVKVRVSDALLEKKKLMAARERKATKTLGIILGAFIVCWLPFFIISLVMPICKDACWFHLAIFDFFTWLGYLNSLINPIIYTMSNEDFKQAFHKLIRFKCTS
Sequence of histamine H1 receptor (P35367 whole entry, species assumed): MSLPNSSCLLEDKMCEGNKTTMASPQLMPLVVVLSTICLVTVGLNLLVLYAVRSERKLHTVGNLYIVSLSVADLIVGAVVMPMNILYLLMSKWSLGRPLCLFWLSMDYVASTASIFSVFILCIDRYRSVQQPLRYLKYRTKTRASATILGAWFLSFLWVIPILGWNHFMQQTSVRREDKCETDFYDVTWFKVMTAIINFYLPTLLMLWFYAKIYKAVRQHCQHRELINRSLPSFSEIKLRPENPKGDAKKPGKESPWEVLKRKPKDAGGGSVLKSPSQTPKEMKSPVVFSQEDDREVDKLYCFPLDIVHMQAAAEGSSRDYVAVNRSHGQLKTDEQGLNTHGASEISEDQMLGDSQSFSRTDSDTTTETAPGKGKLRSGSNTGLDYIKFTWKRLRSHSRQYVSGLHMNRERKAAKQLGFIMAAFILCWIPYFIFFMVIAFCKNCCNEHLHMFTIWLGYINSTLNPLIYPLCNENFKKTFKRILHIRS
Sequence of Mu (MOP) receptor (P35372 whole entry): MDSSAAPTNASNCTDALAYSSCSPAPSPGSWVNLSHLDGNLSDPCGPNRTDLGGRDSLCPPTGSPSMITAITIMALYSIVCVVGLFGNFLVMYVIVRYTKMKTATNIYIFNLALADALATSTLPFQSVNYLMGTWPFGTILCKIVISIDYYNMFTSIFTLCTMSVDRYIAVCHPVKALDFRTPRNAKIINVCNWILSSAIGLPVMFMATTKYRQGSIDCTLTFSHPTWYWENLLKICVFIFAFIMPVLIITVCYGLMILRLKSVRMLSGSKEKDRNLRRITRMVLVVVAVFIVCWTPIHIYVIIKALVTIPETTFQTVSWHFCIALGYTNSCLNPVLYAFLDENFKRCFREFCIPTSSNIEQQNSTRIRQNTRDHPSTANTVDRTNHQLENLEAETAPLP

Row | SMILES | Receptor Sigma: affinity (Sigma opiate sites) | Receptor Sigma: affinity (Sigma opiate sites; listed as compound 1) | activity at adrenergic receptor Alpha 1B [1] | activity at cholinergic muscarinic receptor 1 [2] | activity at adrenergic receptor Alpha 2B [3] | activity at serotonin receptor 1B (serotonin receptor 1B) | activity at serotonin receptor 1A (serotonin receptor 1A) | activity at dopamine D4 receptor (dopamine D4 receptor) | activity at cholinergic muscarinic receptor 4 [4] | Receptor Kappa (KOP): mode of action (Kappa (KOP) receptor) | activity at adrenergic receptor Alpha 2C [5] | activity at histamine H1 receptor (histamine H1 receptor) | activity at cholinergic muscarinic receptor 3 [6] | Receptor ORL1 (NOP): mode of action (ORL1 (NOP) receptor) | Receptor ORL1 (NOP): mode of action (ORL1 (NOP) receptor; listed as compound 1) | Receptor Mu (MOP): mode of action (Mu (MOP) receptor) | activity at cholinergic muscarinic receptor 5 [7]
1 | O=C1CC[C@@]2(O)[C@H]3Cc4ccc(O)c5c4[C@@]2(CCN3CC2CC2)[C@H]1O5 [Naltrexone] | Weak |  |  |  |  |  |  |  |  |  |  |  |  |  |  |  | 
2 | CCC(=O)NC1CC(C)N(CCc2ccccc2)CC1C (stereo not drawn) [Compound 1, 1-(2-phenylethyl)2,5-dimethyl-4-propionilaminopiperidine] |  | activity | antagonistic activity | antagonistic activity | antagonistic activity | antagonistic activity | antagonistic activity | antagonistic activity | antagonistic activity | Antagonist | antagonistic activity | antagonistic activity | antagonistic activity | Antagonist | antagonist | partial agonist | antagonistic activity
3 | C=CCN1CC[C@]23c4c5ccc(O)c4O[C@H]2C(=O)CC[C@@]3(O)[C@H]1C5 [Naloxone] | Weak |  |  |  |  |  |  |  |  |  |  |  |  |  |  |  | 
